Data: patent publication US20260315494A1, “TREATMENT OF BREAST TISSUE” (Havah Therapeutics Pty Ltd, priority 2023, published 2026)
Several values for one entry are separate records, joined by “and”; a condition that tells them apart may be missing. Equal values may be shown once.

Assays:
[1] = Single-dose pharmacokinetics of T+Ai pellet implant (80 mg testosterone + 4 mg anastrozole, subcutaneous); settings: for concentration at 1 h: 1 h post-dose; for concentration at 2 h: 2 h post-dose; for concentration at 4 h: 4 h post-dose; for concentration at 8 h: 8 h post-dose; for concentration at 12 h: 12 h post-dose; for concentration at 24 h: 24 h post-dose; for concentration at 72 h: 72 h post-dose; for concentration at 1680 h: 1680 h post-dose; for concentration at 2016 h: 2016 h post-dose
Description: The premenopausal women were aged between 35 and 55 years of age with a BMI range of 20-30 kg/m^2. […] The implant was intended to be left in situ and was expected to be almost completely absorbed within three months following insertion.
A total of 11 subjects were dosed with the implant and included in the safety analysis set. All 11 subjects were included in the pharmacokinetics (PK) analysis set.
(NB: the sample collection time point at 6 hours post-dose was added for the third and subsequent subject and so serum measurements were not determined for the first two subjects as noted below).
Patients seeking treatment with the T+Ai for reduction in high MBD were eligible for the study. Following successful screening, subjects attended the Wellend Health Clinic for dosing. The trial was designed to dose all subjects while in the luteal phase of their menstrual cycle to avoid the highly changing hormonal environment of the follicular phase. Following insertion of the implant, PK blood sampling was carried out for a duration of three months (see below). Briefly, samples were taken repeatedly on the day of dosing, daily during the first week, weekly for the next four weeks and every second week during the last eight weeks of a total sampling period of three months.
The sampling schedule was revised with the addition of one blood sample (at 6 hours post-dose as discussed above), and no adjustment of the timing of existing time points was made. The duration of sampling was not extended.
Following dosing on Day 1, blood samples were taken pre-dose (within one hour of dosing) and at 1, 2, 4, 6, 8 and 12 hours. Participants returned for a blood sample to be taken at 9 am in the morning on Days 2, 3, 4, 5, 8, 15, 22, 29, 43, 57, 71 and 85.

human mTOR = assay: Western blot of mTOR in breast cancer explants treated with DHT; format: cell-based; settings: for mTOR Western blot ratio to beta-Actin, average: average of 3 patients; for mTOR Western blot ratio to beta-Actin, average / mTOR Western blot ratio to beta-Actin: 5 nM anastrozole, 24 h; for mTOR Western blot ratio to beta-Actin: individual patient
Description: (§1) To evaluate the effect of DHT on breast cancer tissue, 3 primary tumours were examined in the presence of a low anastrozole level of 5 nM employing a modification of the method described by Jankovic-Karasoulos T. et al., 2008.
(§2) The 3 explant invasive breast carcinomas were examined for expression of mTOR and c-Myc and response to exposure to DHT by Western blotting. […] The band density was measured by densitometry, using Image Master VDS and Image Quant Analysis Software (Amersham Pharmacia Biotech, Hong Kong). The relative protein levels of mTOR or MYC and b-actin in the original total protein lysate from the breast preparations were obtained. mTOR or MYC protein expression was normalized to beta-actin protein expression. Immunizing host antibodies were produced with a synthetic peptide derived from the sequence of human mTOR or MYC, purified by peptide affinity chromatography and confirmed using control peptides. The results of the Western blot analysis for mTOR or MYC proteins in the 3 explant samples at baseline and after 24 hours of culture are shown in Table 3 and Table 4 for mTOR or MYC respectively. Cell lysates were immunoblotted with antibodies to mTOR or MYC. The experiment was performed twice with similar results. Data are expressed relative to beta-actin.

human MYC = assay: Western blot of MYC in breast cancer explants treated with DHT; format: cell-based; settings: for MYC Western blot ratio to beta-Actin / MYC Western blot ratio to beta-Actin, average: 24 h
Description: as §1, §2

androgen receptor (AR) = settings: tumoural DHT from 1 nM up to 10 nM, Hickey 2021; cited from earlier work
PCa cells = settings: cited from earlier work
[2] = tested on: endogenous AR pathways / ER-mediated transcriptional activity; settings: human explant tissue and breast cancer cell lines; cited from earlier work
AR/GATA3 = settings: Hosseinzadeh 2024; cited from earlier work
aromatase = settings: increasing DHT in the breast, Perel; cited from earlier work
5α-reductase = settings: increasing DHT in the breast, McNamara 2014; cited from earlier work
breast = settings: injected prior to breast cancer surgery; cited from earlier work
breast tissue = settings: high dose androgen (testosterone), Raths 2023; cited from earlier work
CRPC = settings: with a CDK4/6 inhibitor, Han 2022; cited from earlier work
[3] = on the basis of the present results
[4] = human, in vivo, sc, 80 mg, Measured serum testosterone, GeoMean, geometric mean
[5] = human, in vivo, sc, 80 mg, Measured serum testosterone, mean
[6] = human, in vivo, sc, 80 mg, Measured serum testosterone, median

C[C@]12CCC(=O)C[C@@H]1CC[C@@H]1[C@@H]2CC[C@]2(C)[C@@H](O)CC[C@@H]12 [DHT, 5α-dihydrotestosterone]
serum DHT ([1]; most samples): not measurable in most samples | mTOR expression in words (human mTOR; 0.1 nM DHT): markedly elevated | mTOR Western blot ratio to beta-Actin, average (human mTOR; 0.1 nM DHT): 1.01 | mTOR Western blot ratio to beta-Actin (human mTOR; 0.1 nM DHT): 0.81 and 1.01 and 1.23 | mTOR expression in words (human mTOR; 1 nM DHT): barely discernable | mTOR Western blot ratio to beta-Actin, average (human mTOR; 1 nM DHT): 0.04 | mTOR Western blot ratio to beta-Actin (human mTOR; 1 nM DHT): 0.04 and 0.02 and 0.06 | mTOR expression in words (human mTOR; 10 nM DHT): essentially not detected | mTOR Western blot ratio to beta-Actin, average (human mTOR; 10 nM DHT): 0.04 | mTOR Western blot ratio to beta-Actin (human mTOR; 10 nM DHT): 0.03 and 0.05 and 0.04 | DHT concentration required to inhibit induction of mTOR activity (human mTOR; [3]): at least 1 nM | Myc expression in words (human MYC; 0.1 nM DHT): markedly elevated | suppression of c-Myc (human MYC; 0.1 nM DHT): unable to suppress c-Myc | MYC Western blot ratio to beta-Actin (human MYC; 0.1 nM DHT, individual patient, 5 nM anastrozole): 1.01 and 1.23 | Myc expression in words (human MYC; 1 nM DHT): barely discernable | MYC Western blot ratio to beta-Actin (human MYC; 1 nM DHT, individual patient, 5 nM anastrozole): 0.02 and 0.06 | Myc expression in words (human MYC; 10 nM DHT): essentially not detected | MYC Western blot ratio to beta-Actin (human MYC; 10 nM DHT, individual patient, 5 nM anastrozole): 0.05 and 0.04 | MYC Western blot ratio to beta-Actin (human MYC; 0.0001 µM): 0.39 | MYC Western blot ratio to beta-Actin, average (human MYC; 0.0001 µM): 1.01 | MYC Western blot ratio to beta-Actin (human MYC; 0.001 µM): 0.04 | MYC Western blot ratio to beta-Actin, average (human MYC; 0.001 µM): 0.04 | MYC Western blot ratio to beta-Actin (human MYC; 0.01 µM): 0.03 | MYC Western blot ratio to beta-Actin, average (human MYC; 0.01 µM): 0.04 | suppression of c-Myc (human MYC; intra-tumoural DHT from 1 to 10 nM): results in suppression of c-Myc | DHT concentration required for suppression of cMyc (human MYC; [3]): at least 1 nM | AR tumour suppressor induction (androgen receptor (AR)): can induce androgen receptor (AR) to become a tumour suppressor of estrogen receptor (ER) positive breast cancer | c-Myc expression associated with AR dimer (PCa cells; elevated DHT levels): reduction in c-Myc expression | mTOR activity associated with AR monomer (PCa cells; low level DHT): elevated mTOR activity | ER-mediated transcriptional activity [2]: can activate endogenous AR pathways to inhibit ER-mediated transcriptional activity | AR/GATA3 binding (AR/GATA3): induces AR/GATA3 binding | aromatase in breast tissue (aromatase): down regulation of aromatase | 5α-reductase in breast tissue (5α-reductase): up regulation of 5α-reductase

C[C@]12CCC(=O)C[C@@H]1CC[C@@H]1[C@@H]2CC[C@]2(C)[C@@H](O)CC[C@@H]12 [radioactive DHT]
accumulation of radioactive DHT (breast): initially accumulated in the fat of the breast then strongly accumulated in the malignancy

C[C@]12CC[C@H]3[C@@H](CCC4=CC(=O)CC[C@@]43C)[C@@H]1CC[C@@H]2O [Testosterone, testosterone]
average serum testosterone concentration at 12 weeks ([1]; 12 weeks post-dose, 120960 min): 0.8 ng/mL | increase in serum testosterone compared with baseline ([1]; all subjects, 12 weeks): sustained in all subjects at 12 weeks | average serum testosterone at baseline ([1]; baseline, before implant): 0.2 ng/mL | Measured serum testosterone, GeoMean ([1]; geometric mean, pre-dose): 0.19 ng/mL | Tmax ([1]; human, in vivo, sc, 80 mg): 6 to 12 h | concentration at 1 h [1, 4]: 0.49 ng/mL | concentration at 2 h [1, 4]: 0.6 ng/mL | concentration at 4 h [1, 4]: 0.94 ng/mL | concentration at 6 h ([1]; human, in vivo, sc, 80 mg, Measured serum testosterone, GeoMean, geometric mean, 6 h post-dose): 2.53 ng/mL | concentration at 8 h [1, 4]: 3.29 ng/mL | concentration at 12 h [1, 4]: 3.36 ng/mL | concentration at 24 h [1, 4]: 2.39 ng/mL | concentration at 72 h [1, 4]: 1.63 ng/mL | concentration at 1680 h [1, 4]: 0.99 ng/mL | concentration at 1680 h ([1]; human, in vivo, sc, 80 mg, Measured serum testosterone, individual subject): 0.791 ng/mL | concentration at 1 h [1, 5]: 0.55 ng/mL | concentration at 2 h [1, 5]: 0.73 ng/mL | concentration at 4 h [1, 5]: 1.43 ng/mL | concentration at 8 h [1, 5]: 3.55 ng/mL | concentration at 12 h [1, 5]: 3.43 ng/mL | concentration at 24 h [1, 5]: 2.45 ng/mL | concentration at 48 h ([1]; human, in vivo, sc, 80 mg, Measured serum testosterone, mean, 48 h post-dose): 1.83 ng/mL | concentration at 72 h [1, 5]: 1.73 ng/mL | concentration at 168 h ([1]; human, in vivo, sc, 80 mg, Measured serum testosterone, mean, 168 h post-dose): 1.53 ng/mL | concentration at 504 h ([1]; human, in vivo, sc, 80 mg, Measured serum testosterone, mean, 504 h post-dose): 2.26 ng/mL | concentration at 1344 h ([1]; human, in vivo, sc, 80 mg, Measured serum testosterone, mean, 1344 h post-dose): 1.25 ng/mL | concentration at 1680 h [1, 5]: 1 ng/mL | concentration at 2016 h [1, 5]: 0.83 ng/mL | concentration at 1 h [1, 6]: 0.47 ng/mL | concentration at 2 h [1, 6]: 0.51 ng/mL | concentration at 4 h [1, 6]: 0.92 ng/mL | concentration at 1008 h ([1]; human, in vivo, sc, 80 mg, Measured serum testosterone, median, 1008 h post-dose): 1.4 ng/mL | concentration at 1680 h [1, 6]: 1 ng/mL | concentration at 2016 h [1, 6]: 0.85 ng/mL | Measured serum testosterone, mean ([1]; mean, pre-dose): 0.21 ng/mL | Measured serum testosterone, median ([1]; median, pre-dose): 0.19 ng/mL | average Cmax, serum testosterone ([1]; serum): 4.1 ng/mL | median Tmax for serum testosterone ([1]; serum, post-dose): 8 h | breast ductal structures (breast tissue): breast ductal structures shrunk | efficacy of high-testosterone treatment with CDK4/6 inhibitor (CRPC): enhanced by a CDK4/6 inhibitor
